Here are results for one compound from patent US8608842B2, “Infrared absorbing composition, infrared absorbing ink, recorded article, image recording method, and image detecting method” (FUJIFILM Corporation, priority 2010, dated 2013).

Format in all cases: physicochemical
The nature of data set [1]: Ultraviolet curable ink of Example 4: reflected light of mark for copy protection, before and after xenon irradiation. The conditions noted are these: xenon light of 70,000 lux, 72 hours; variation compared to the value before irradiation. How it is done:
By mixing the components of the composition shown below, an ultraviolet curable ink having an infrared absorbing property was prepared.
By using the ultraviolet curable ink thus obtained, a mark for copy protection was printed on the same base paper as that used in Example 1 by Gravure printing. On top of the printed mark for copy protection, each of the three kinds of a process ink (FDOL Yellow, FDOL Magenta, and FDOL Cyan, trade names, manufactured by TOYO INK MFG. CO., LTD.) was applied as a layer by Gravure printing, or a mixture ink in which the three kinds of a process ink are mixed was applied as a layer by Gravure printing to hide the mark for copy protection, thus obtaining a printed article.
The mark for copy protection that is hidden by the process ink was irradiated with infrared light using a linear sensor (trade name: TCD1500C, manufactured by Toshiba) in which the infrared cut-off filter of linear sensor was replaced with an infrared transmitting filter (trade name: IR83, manufactured by Hoya) as a detection device, and the reflected light was detected simultaneously.
The reflection light intensity in the area of the mark for copy protection at the time of detecting the mark was divided by the reflection light intensity of the area outside the mark for copy protection. The resulting value of the comparative infrared absorbing agent A was set to 1, and a ratio of the resulting value with respect to the resulting value of the comparative infrared absorbing agent A was calculated for each compound.
In addition, the obtained printed article was irradiated continuously with xenon light of 70,000 lux for 72 hours by using a Xenon lamp. After the irradiation, similar to above, the reflection light intensity of the area of the mark for copy protection was divided by the reflection light intensity of the area outside the mark for copy protection, and the variation ratio [%] compared to the value before the irradiation was calculated to use it as an index for evaluation of light resistance.

A short description of data set [2]: Bar code pattern reading (PCS) of printed article before and after xenon light irradiation (light resistance). The conditions noted are these: xenon light of 70,000 lux, 200 hours. As for the experimental part:
By mixing the components of the composition shown below, the infrared absorbing printing ink (1) was prepared.
By using each of the infrared absorbing printing ink obtained above, a bar code pattern was formed on a regular paper (trade name: MP-120, manufactured by PLUS Corporation), i.e., a base paper, by Gravure printing.
Subsequently, on the formed bar code pattern, another bar code pattern was additionally formed by using the infrared absorbing ink (2) having the composition shown below.
Next, on top of the bar code patterns formed by disposing two layers, three kinds of process inks having infrared transmittance (FDOL Yellow, FDOL Magenta, and FDOL Cyan, manufactured by TOYO INK MFG. CO., LTD. (trade names, manufactured by TOYO INK MFG. CO., LTD.) were further applied by Gravure printing to form a colored layer made of three visible colors (cyan, magenta, and yellow). As a result, a printed article having a bar code pattern disposed inside the matter was produced.
Two kinds of semiconductor laser beam having wavelengths of 830 nm and 905 nm respectively were irradiated onto the thus obtained printed article, and the detection was made by using a filter which cuts off the emission light having wavelength of 950 nm or less. As a result, it was possible to detect the pattern formed by the infrared absorbing ink.
Subsequently, xenon light of 70,000 lux was irradiated continuously for 200 hours onto the printed article by using a xenon lamp. After that, the reading state of the bar code pattern after the irradiation was evaluated. For the evaluation, PCS (print•contrast•signal) of 0.6 or more was evaluated as “good,” and PCS (print•contrast•signal) of less than 0.6 was evaluated as “bad.” The evaluation results are shown in Table 2 below.
The printed article was prepared in the same manner as Example 1 except that the solvent (a mixture solvent of toluene and methyl isobutyl ketone) in the composition of the infrared absorbing ink (1) and (2) is replaced with n-octane (SP value: 7.6), butyl acetate (SP value: 8.5), or isopropyl alcohol (IPA; SP values: 11.5), and evaluated.
The comparative printed article was prepared in the same manner as Example 1 except that the solvent (a mixture solvent of toluene and methyl isobutyl ketone) in the composition of the infrared absorbing ink (1) and (2) is replaced with n-pentane (SP value: 7.0; Example 2) or ethanol (SP value: 12.7; Example 3), and evaluated.

Data set [3] in a line: Solubility of IR coloring material in toluene at 25° C. The conditions noted are these: toluene, 25° C. As for the experimental part: Specifics are as follows.
First, a tetrahydrofuran (THF) solution prepared by adding the IR coloring material to TI-IF is measured by a spectrophotometer and a calibration curve is constructed. Next, a liquid is prepared by adding the IR coloring material to toluene to the level that there is a part of the coloring material left undissolved. The resulting liquid is subjected to ultrasonication for 10 minutes while being maintained at 25° C., and allowed to stand overnight at 25° C. The THF solution obtained after the standing is filtered using a 0.2 μm filter. The filtrate is diluted so that it falls within the linear range of the calibration curve, the absorbance is measured, and quantification is made using the calibration curve.
The solubility shown in Table 1 was measured according to the method described below. Specifics are as follows.
First, the THF solution prepared by adding the IR coloring material to tetrahydrofuran (THF) was measured by a spectrophotometer, and the calibration curve was established. Next, a liquid was prepared by adding the IR coloring material to toluene to the level that there is a part of coloring material left undissolved. The resulting liquid was subjected to ultrasonication for 10 minutes while being kept at 25° C., and allowed to stand overnight at 25° C. The THF solution obtained after the standing was filtered using a 0.2 μm filter. The filtrate was diluted so that it falls within the linear range of the calibration curve, and the absorbance was measured. Based on the measured value, the solubility was quantified using the calibration curve.

As to `Nc1ccccc1Sc1c2c(c(Sc3ccccc3N)c3c1C1=Nc4c5c(Sc6ccccc6N)c6c(c(Sc7ccccc7N)c5c5[n]4[V](=[O])[n]4c(c7c(Sc8ccccc8N)c8c(c(Sc9ccccc9N)c7c4=NC4=NC(=N5)c5c(Sc7ccccc7N)c7c(c(Sc9ccccc9N)c54)NC4C=CC=CC4S7)SC4C=CC=CC4N8)=NC3=N1)NC1C=CC=CC1S6)SC1C=CC=CC1N2` (centres unmarked) [Compound 71], the “Variation amount after irradiation [%]” value in data set [1] is 3%. Also, the Reading after irradiation entry is given as “Bad (PCS (print•contrast•signal) of less than 0.6 was evaluated as “bad.”)” in data set [2] (Example 2, ink solvent n-pentane (SP value: 7.0)); “Bad (PCS (print•contrast•signal) of less than 0.6 was evaluated as “bad.”)” in data set [2] (Example 3, ink solvent ethanol (SP value: 12.7)); “Good (PCS (print•contrast•signal) of 0.6 or more was evaluated as “good,”)” in data set [2] (ink solvent IPA (SP value: 11.5)); “Good (PCS (print•contrast•signal) of 0.6 or more was evaluated as “good,”)” in data set [2] (ink solvent butyl acetate (SP value: 8.5)); “Good (PCS (print•contrast•signal) of 0.6 or more was evaluated as “good,”)” in data set [2] (ink solvent n-octane (SP value: 7.6)); “Good (PCS (print•contrast•signal) of 0.6 or more was evaluated as “good,”)” in data set [2] (ink solvent toluene/methyl isobutyl ketone = 70/30). Moreover, the “Solubility [mg/ml] Solvent: toluene” value in data set [3] worked out at 16 mg/mL.
